Experimental data as given in PubChem BioAssay AID248 (DTP/NCI, 2004).
Where “and” joins values, the source holds several entries; their conditions need not be identical. Equal entries are not always repeated. Toxic doses and inconclusive results are not listed.

System: L1210 leukemia ip in BDF1 mice, survival T/C
Assay: NCI In Vivo Anticancer Drug Screen. Data for tumor model L1210 Leukemia (intraperitoneal) in B6D2F1 (BDF1) mice
Conditions: endpoint: mean survival time, higher = longer survival
Method in brief: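 Transplanted-tumor mice were given test agent; controls received vehicle only. Survival readings from the two groups were divided (treated over control).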

SMILES: NC(Cc1c[nH]c2ccc(N(CCCl)CCCl)cc12)C(=O)O (stereo not given)
- T/C (dose: 1.87 mg/kg/injection, schedule: Q01DX001 (oral), vehicle: carboxymethylcellulose (CMC)): 106 % of control
- T/C (dose: 2.0 mg/kg/injection, schedule: Q01DX (oral), vehicle: acid diluted with saline): 102 % of control
- T/C (dose: 3.5 mg/kg/injection, schedule: Q01DX 1 (oral), vehicle: acid diluted with saline): 110 % of control and 124 % of control
- T/C (dose: 3.5 mg/kg/injection, schedule: Q07DX (oral), vehicle: acid diluted with saline): 114 % of control
- T/C (dose: 3.75 mg/kg/injection, schedule: Q01DX001 (ip), vehicle: carboxymethylcellulose (CMC)): 192 % of control
- T/C (dose: 3.75 mg/kg/injection, schedule: Q01DX001 (oral), vehicle: carboxymethylcellulose (CMC)): 108 % of control
- T/C (dose: 4.0 mg/kg/injection, schedule: Q01DX (oral), vehicle: acid diluted with saline): 106 % of control
- T/C (dose: 5.0 mg/kg/injection, schedule: Q01DX001 (ip), vehicle: saline): 295 % of control
- T/C (dose: 7.0 mg/kg/injection, schedule: Q01DX 1 (oral), vehicle: acid diluted with saline): 110 % of control and 124 % of control
- T/C (dose: 7.0 mg/kg/injection, schedule: Q07DX (oral), vehicle: acid diluted with saline): 123 % of control
- T/C (dose: 7.0 mg/kg/injection, schedule: Q07DX Z (oral), vehicle: acid diluted with saline): 116 % of control
- T/C (dose: 7.5 mg/kg/injection, schedule: Q01DX001 (ip), vehicle: carboxymethylcellulose (CMC)): 264 % of control
- T/C (dose: 7.5 mg/kg/injection, schedule: Q01DX001 (oral), vehicle: carboxymethylcellulose (CMC)): 114 % of control
- T/C (dose: 8.0 mg/kg/injection, schedule: Q01DX (oral), vehicle: acid diluted with saline): 95 % of control
- T/C (dose: 8.0 mg/kg/injection, schedule: Q03DX Z (oral), vehicle: acid diluted with saline): 119 % of control
- T/C (dose: 10.0 mg/kg/injection, schedule: Q01DX001 (ip), vehicle: saline): 270 % of control
- T/C (dose: 14.0 mg/kg/injection, schedule: Q01DX 1 (oral), vehicle: acid diluted with saline): 105 % of control and 115 % of control
- T/C (dose: 14.0 mg/kg/injection, schedule: Q07DX Z (oral), vehicle: acid diluted with saline): 107 % of control
- T/C (dose: 15.0 mg/kg/injection, schedule: Q01DX001 (oral), vehicle: carboxymethylcellulose (CMC)): 119 % of control
- T/C (dose: 16.0 mg/kg/injection, schedule: Q01DX (oral), vehicle: acid diluted with saline): 95 % of control
- T/C (dose: 16.0 mg/kg/injection, schedule: Q01DX Z (oral), vehicle: acid diluted with saline): 116 % of control
- T/C (dose: 20.0 mg/kg/injection, schedule: Q01DX001 (oral), vehicle: saline): 119 % of control
- T/C (dose: 28.0 mg/kg/injection, schedule: Q01DX 1 (oral), vehicle: acid diluted with saline): 104 % of control and 118 % of control
- T/C (dose: 28.0 mg/kg/injection, schedule: Q01DX001 (oral), vehicle: acid diluted with saline): 108 % of control and 118 % of control
- T/C (dose: 28.0 mg/kg/injection, schedule: Q07DX (oral), vehicle: acid diluted with saline): 120 % of control
- T/C (dose: 40.0 mg/kg/injection, schedule: Q01DX001 (oral), vehicle: saline): 86 % of control
- T/C (dose: 56.0 mg/kg/injection, schedule: Q01DX 1 (oral), vehicle: acid diluted with saline): 113 % of control and 121 % of control
- T/C (dose: 56.0 mg/kg/injection, schedule: Q01DX001 (oral), vehicle: acid diluted with saline): 117 % of control and 122 % of control
- T/C (dose: 56.0 mg/kg/injection, schedule: Q07DX (oral), vehicle: acid diluted with saline): 123 % of control
- T/C (dose: 80.0 mg/kg/injection, schedule: Q01DX001 (oral), vehicle: saline): 102 % of control
- T/C (dose: 112.0 mg/kg/injection, schedule: Q01DX001 (oral), vehicle: acid diluted with saline): 120 % of control
- T/C (dose: 168.0 mg/kg/injection, schedule: Q01DX001 (oral), vehicle: acid diluted with saline): 122 % of control
- T/C (dose: 204.0 mg/kg/injection, schedule: Q01DX 1 (oral), vehicle: acid diluted with saline): 106 % of control
- T/C (dose: 204.0 mg/kg/injection, schedule: Q01DX001 (oral), vehicle: acid diluted with saline): 107 % of control
- T/C (dose: 1.0 micrograms/kg/injection, schedule: Q07DX 2 (ip), vehicle: acid diluted with saline): 101 % of control
- T/C (dose: 5.0 micrograms/kg/injection, schedule: Q07DX 2 (ip), vehicle: acid diluted with saline): 102 % of control
- T/C (dose: 16.0 micrograms/kg/injection, schedule: Q07DX 2 (ip), vehicle: acid diluted with saline): 117 % of control
- T/C (dose: 22.0 micrograms/kg/injection, schedule: Q01DX Z (ip), vehicle: saline): 104 % of control
- T/C (dose: 33.0 micrograms/kg/injection, schedule: Q01DX Z (ip), vehicle: saline): 107 % of control
- T/C (dose: 45.0 micrograms/kg/injection, schedule: Q01DX009 (ip), vehicle: saline): 109 % of control
- T/C (dose: 50.0 micrograms/kg/injection, schedule: Q01DX Z (ip), vehicle: saline): 107 % of control
- T/C (dose: 50.0 micrograms/kg/injection, schedule: Q07DX 2 (ip), vehicle: acid diluted with saline): 123 % of control
- T/C (dose: 75.0 micrograms/kg/injection, schedule: Q01DX Z (ip), vehicle: saline): 115 % of control
- T/C (dose: 750.0 micrograms/kg/injection, schedule: Q01DX009 (ip), vehicle: saline): 207 % of control
- T/C (dose: 1500.0 micrograms/kg/injection, schedule: Q01DX009 (ip), vehicle: saline): 219 % of control
